Measured values as given in PubChem BioAssay AID1259411 (Chemical Carcinogenesis Research Information System (CCRIS), 2018).
Active and inactive are the calls of the source. No rule for the calls is given here.

System: rodent carcinogenicity bioassays, tumor incidence
Assay: CCRIS carcinogenicity studies
Conditions: Dose: 0, Dose: 0
Procedure, shortened: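 NCI-built, expert-reviewed records of carcinogenicity and related test outcomes (mutagenicity, tumor promotion/inhibition) compiled from published and report sources, historical span 1985-2011, not updated.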

Question: How did the carcinogen call (Species: Mouse, Strain/Sex: Crl:CD-1(ICR)BR/Female (70/Group), Route: Oral, 200, 750, 1500 ppm in diet for 78 wk, study duration 78 wk. Test sample purity, 98%., 200, 750, 1500 ppm in diet for 78 wk, study duration 78 wk. Test sample purity, 98%., Tumor Site: Type of Lesion: Liver: Hepatocellular adenoma and carcinoma combined (high dose only)) turn out when CCCCCCCCCCCCN=C(N)N was run?
Answer: active; positive, (neither tumor type, alone, was statistically significant.)

Question: What about the carcinogen call (Species: Mouse, Strain/Sex: Crl:CD-1(ICR)BR/Male (70/Group), Route: Oral, 200, 750, 1500 ppm in diet for 78 wk, study duration 78 wk. Test sample purity, 98%., 200, 750, 1500 ppm in diet for 78 wk, study duration 78 wk. Test sample purity, 98%.) of the same compound?
Answer: inactive; negative

Question: What about the carcinogen call (Species: Rat, Strain/Sex: Sprague-Dawley/Female (60/Group), Route: Oral, 13.2, 26.5, 53.5 mg/kg/day in diet on wks 1-101, study duration 2 yrs. Test sample purity, 98.6%., 13.2, 26.5, 53.5 mg/kg/day in diet on wks 1-101, study duration 2 yrs. Test sample purity, 98.6%.) of the same compound?
Answer: inactive; negative

Question: And the carcinogen call (Species: Rat, Strain/Sex: Sprague-Dawley/Male (60/Group), Route: Oral, 10.2, 20.3, 41.9 mg/kg/day in diet on wks 1-101, study duration 2 yrs. Test sample purity, 98.6%, 10.2, 20.3, 41.9 mg/kg/day in diet on wks 1-101, study duration 2 yrs. Test sample purity, 98.6%)?
Answer: inactive; negative

Question: Which carcinogen call (Species: MOUSE, Strain/Sex: SWISS/FEMALE, Route: INTRAPERITONEAL, 10, 50 UMOL ADMINISTERED AS 3 UNEQUAL DOSES (1/7, 2/7, AND 4/7 OF THE TOTAL DOSE) OVER A 2-WK PERIOD (STUDY DURATION:, 10, 50 UMOL ADMINISTERED AS 3 UNEQUAL DOSES (1/7, 2/7, AND 4/7 OF THE TOTAL DOSE) OVER A 2-WK PERIOD (STUDY DURATION:) does the source give for O[C@@H]1C=CC=C[C@H]1O here?
Answer: inactive; negative

Question: And the carcinogen call (Species: MOUSE, Strain/Sex: SWISS/MALE, Route: INTRAPERITONEAL, 10, 50 UMOL ADMINISTERED AS 3 UNEQUAL DOSES (1/7, 2/7, AND 4/7 OF THE TOTAL DOSE) OVER A 2-WK PERIOD (STUDY DURATION:, 10, 50 UMOL ADMINISTERED AS 3 UNEQUAL DOSES (1/7, 2/7, AND 4/7 OF THE TOTAL DOSE) OVER A 2-WK PERIOD (STUDY DURATION:)?
Answer: inactive; negative

Question: With O[C@H]1C=Cc2c(ccc3c2-c2cccc4cccc-3c24)[C@@H]1O as the compound, how does the carcinogen call (Species: MOUSE, Strain/Sex: CD-1/FEMALE, Route: INTRAPERITONEAL, 0.275, 1.1 UMOL (TOTAL DOSE) ADMINISTERED OVER DAYS 1, 8, AND 15 OF LIFE (STUDY DURATION: 52 WEEKS), 0.275, 1.1 UMOL (TOTAL DOSE) ADMINISTERED OVER DAYS 1, 8, AND 15 OF LIFE (STUDY DURATION: 52 WEEKS), Tumor Site: Type of Lesion: LUNG: ALVEOLAR/BRONCHIOLAR CARCINOMA) read?
Answer: active; positive

Question: And the carcinogen call (Species: MOUSE, Strain/Sex: CD-1/MALE, Route: INTRAPERITONEAL, 0.275, 1.1 UMOL(TOTAL DOSE) ADMINISTERED OVER DAYS 1, 8, AND 15 OF LIFE (STUDY DURATION: 52 WEEKS), 0.275, 1.1 UMOL(TOTAL DOSE) ADMINISTERED OVER DAYS 1, 8, AND 15 OF LIFE (STUDY DURATION: 52 WEEKS), Tumor Site: Type of Lesion: LUNG: ALVEOLAR/BRONCHIOLAR CARCINOMA, LIVER: ADENOMA OR CARCINOMA)?
Answer: active; positive

Question: Which results are given for Cc1ccc(Nc2ccc(O)c3c2C(=O)c2ccccc2C3=O)cc1?
Answer: carcinogen call (Species: MOUSE, Strain/Sex: SWISS-WEBSTER/FEMALE, Route: DERMAL, 1% IN 0.1 ML 0.1% SODIUM LAURYL SULFATE 1/WK FOR 18 MO (STUDY DURATION: 18 MO)): inactive; negative; carcinogen call (Species: MOUSE, Strain/Sex: SWISS-WEBSTER/MALE, Route: DERMAL, 1% IN 0.1 ML 0.1% SODIUM LAURYL SULFATE 1/WK FOR 18 MO (STUDY DURATION: 18 MO)): inactive; negative
